Source: patent US10065941B2, “Aminotriazine derivative and pharmaceutical composition comprising the same” (Shionogi & Co., Ltd., priority 2013, dated 2018)

Target: human P2X3 receptor (Homo sapiens (Human), UniProt P56373)
Test: Evaluation of human P2X3 receptor inhibitory activity (Test Example 1)
Format: cell-based
Settings: C6BU-1 cell transfected with human P2X3 receptor gene, FLIPR 384
Procedure, shortened: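 FLIPR calcium read-out: signal taken as peak fluorescence after ATP addition divided by starting fluorescence, and IC50 calculated from it. Compound added 5 min before 150 nM ATP solution (pre-dispense stock) to Fluo-3-AM-loaded C6BU-1 cells stably transfected with human P2X3; HEPES buffer pH 7.5 with probenecid.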

Sequence of human P2X3 receptor (P56373 whole entry): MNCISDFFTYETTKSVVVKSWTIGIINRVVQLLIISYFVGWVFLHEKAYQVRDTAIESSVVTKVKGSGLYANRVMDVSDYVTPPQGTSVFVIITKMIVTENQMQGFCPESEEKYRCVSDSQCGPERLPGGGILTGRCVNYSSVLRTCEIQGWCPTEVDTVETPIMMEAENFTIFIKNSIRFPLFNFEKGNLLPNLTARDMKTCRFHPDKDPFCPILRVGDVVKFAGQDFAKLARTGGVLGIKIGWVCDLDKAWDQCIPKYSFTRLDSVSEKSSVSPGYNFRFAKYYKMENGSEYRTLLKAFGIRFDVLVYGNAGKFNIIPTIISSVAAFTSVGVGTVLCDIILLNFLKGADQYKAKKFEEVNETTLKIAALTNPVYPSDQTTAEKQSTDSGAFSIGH

For O=c1[nH]/c(=N\c2ccc(Oc3ccccn3)cc2)n(Cc2ccc(Cl)cc2)c(=O)n1[C@H]1C[C@@H](C(=O)O)C1 [Compound I-175], the IC50 was 9 nM.
For Cc1ccc(Cn2c(=O)n([C@H](C)CC(=O)O)c(=O)[nH]/c2=N\c2ccc(Oc3ccccn3)cc2)cc1 [Compound I-187], the IC50 was 8 nM.
CO[C@@H](Cn1c(=O)[nH]/c(=N\c2ccc(Oc3ncccc3F)cc2)n(Cc2ccc(Cl)cc2)c1=O)C(=O)O [Compound I-102] gave an IC50 of 5 nM.
C[C@@H](C(=O)O)[C@H](C)n1c(=O)[nH]/c(=N\c2ccc(Oc3cnccn3)c(F)c2)n(Cc2ccc(Cl)cc2)c1=O [Compound R-125] was tested, and the IC50 was 7 nM.
COC(=O)C(C)(C)Cn1c(=O)[nH]/c(=N\c2ccc(N3CCCCC3)c(C)c2)n(Cc2ccc(Cl)cc2)c1=O [Compound R-139] gave an IC50 of 119 nM.
C[C@@H](Cn1c(=O)[nH]/c(=N\c2ccc(Oc3cc(Cl)ccn3)cc2)n(Cc2ccc(Cl)cc2)c1=O)C(=O)O [Compound I-065] was tested, and the IC50 was 8 nM.
For O=c1[nH]/c(=N\c2ccc(Oc3ccccn3)cc2)n(Cc2ccc(Cl)cc2)c(=O)n1C[C@@H](O)CO [Compound R-250], the IC50 was 9 nM.
With CC1(C)OCC(Cn2c(=O)[nH]/c(=N\c3ccc(Oc4ccccn4)cc3)n(Cc3ccc(Cl)cc3)c2=O)CO1 [Compound R-245] the IC50 was 4 nM.
For CCn1c(=O)[nH]/c(=N\c2ccc(-c3ccc(C#N)cn3)cc2)n(Cc2ccc(Cl)cc2)c1=O [Compound R-005], the IC50 was 608 nM.
COC(=O)[C@@H](C)Cn1c(=O)[nH]/c(=N\c2ccc(Oc3ccc(F)cn3)cc2)n(Cc2ccc(Cl)s2)c1=O [Compound I-272] gave an IC50 of 8 nM.
COC(=O)C(C)(C)Cn1c(=O)[nH]/c(=N\c2ccc(Oc3ccnc(Cl)c3)cc2)n(Cc2ccc(Cl)cc2)c1=O [Compound R-087] showed an IC50 of 12 nM.
Compound C[C@@H](C(=O)O)[C@H](C)n1c(=O)[nH]/c(=N\c2ccc(Oc3cnccn3)cc2)n(Cc2ccc(Cl)cc2)c1=O [Compound R-168] has an IC50 of 17 nM.
Compound COC(=O)[C@@H](C)Cn1c(=O)[nH]/c(=N\c2ccc(Oc3ncccc3C#N)cc2)n(Cc2ccc(Cl)cc2)c1=O [Compound I-045] has an IC50 of 19 nM.
Compound C[C@@H](Cn1c(=O)[nH]/c(=N\c2ccc(Oc3ccccn3)cc2)n(Cc2ccc(CF)cc2)c1=O)C(=O)O [Compound I-214] has an IC50 of 11 nM.
With Cc1cc(/N=c2\[nH]c(=O)n(CC(C)(C)C(=O)O)c(=O)n2Cc2ccc(Cl)cc2)ccc1Oc1cnccn1 [Compound R-131] the IC50 was 9 nM.
C[C@H](CC(=O)O)n1c(=O)[nH]/c(=N\c2ccc(Oc3ccc(F)cn3)cc2)n(Cc2ccc(Cl)cc2)c1=O [Compound I-165] showed an IC50 of 15 nM.
COC(=O)[C@H](C)[C@H](C)n1c(=O)[nH]/c(=N\c2ccc(Oc3ccccn3)cc2)n(Cc2ccc(Cl)cc2)c1=O [Compound I-144] was tested, and the IC50 was 9 nM.
For CCc1oc2ccc(/N=c3\[nH]c(=O)n(C[C@H](C)C(=O)OC)c(=O)n3Cc3ccc(C)cc3)cc2c1C [Compound R-220], the IC50 was 22 nM.
Work on COC(=O)C(C)(C)Cn1c(=O)[nH]/c(=N\c2ccc(Oc3ncccc3OC)cc2)n(Cc2ccc(Cl)cc2)c1=O [Compound I-159] yielded an IC50 of 9 nM.
CNC(=O)Cn1c(=O)[nH]/c(=N\c2ccc(Oc3ccccn3)cc2)n(Cc2ccc(Cl)cc2)c1=O [Compound R-241] gave an IC50 of 9 nM.
C[C@@H](Cn1c(=O)[nH]/c(=N\c2ccc(Oc3ccc(F)cn3)cc2)n(CC2CCC3(CC2)CC3)c1=O)C(=O)O [Compound I-235] gave an IC50 of 9 nM.
C[C@@H](Cn1c(=O)[nH]/c(=N\c2ccc(Oc3cc(C(F)(F)F)ccn3)cc2)n(Cc2ccc(Cl)cc2)c1=O)C(=O)O [Compound I-088] gave an IC50 of 15 nM.
In the case of CCOC(=O)Cn1c(=O)[nH]/c(=N\c2ccc(Oc3ccc(F)cn3)cc2)n(Cc2ccc(Cl)cc2)c1=O [Compound R-309], the IC50 is reported as 4 nM.
In the case of CCOC(=O)C[C@H](O)Cn1c(=O)[nH]/c(=N\c2ccc(Oc3ccc(F)cn3)cc2)n(Cc2ccc(Cl)cc2)c1=O [Compound I-089], the IC50 is reported as 8 nM.
With COC(=O)[C@@H](C)Cn1c(=O)[nH]/c(=N\c2ccc(Oc3ccc(C)cn3)cc2)n(Cc2ccc(Cl)cc2)c1=O [Compound I-051] the IC50 was 6 nM.
C[C@@H](Cn1c(=O)[nH]/c(=N\c2ccc(O[C@H](C)C(F)(F)F)c(O[C@H](C)C(F)(F)F)c2)n(Cc2ccc(Cl)cc2)c1=O)C(=O)O [Compound R-094] was tested, and the IC50 was 29 nM.
Work on CC(C)(Cn1c(=O)[nH]/c(=N\c2ccc(Oc3ccccn3)c(F)c2)n(Cc2ccc(Cl)cc2)c1=O)C(=O)O [Compound I-230] yielded an IC50 of 11 nM.
O=c1[nH]/c(=N\c2ccc(Oc3ccc(F)cn3)cc2)n(Cc2ccc(Cl)cc2)c(=O)n1CC1(CO)COC1 [Compound R-084] showed an IC50 of 6 nM.
CC(CO)(CO)Cn1c(=O)[nH]/c(=N\c2ccc(Oc3ccccn3)cc2)n(Cc2ccc(Cl)cc2)c1=O [Compound R-244] showed an IC50 of 4 nM.
Work on COC(=O)c1ccc(NC(=O)c2cccc(Oc3ccc(/N=c4\[nH]c(=O)n(C)c(=O)n4C[C@H]4CC[C@H](C)CC4)cc3)n2)cc1 [Compound R-004] yielded an IC50 of 123 nM.
In the case of C[C@@H](Cn1c(=O)[nH]/c(=N\c2ccc(Oc3ccc(F)cn3)cc2)n(Cc2ccc(CF)cc2)c1=O)C(=O)O [Compound I-216], the IC50 is reported as 17 nM.
CCOC(=O)C1(Cn2c(=O)[nH]/c(=N\c3ccc(Oc4ncccc4F)cc3)n(Cc3ccc(Cl)cc3)c2=O)CC1 [Compound I-066] gave an IC50 of 15 nM.
In the case of C[C@@H](C(=O)O)[C@H](C)n1c(=O)[nH]/c(=N\c2ccc(Oc3cnc(C#N)nc3)cc2)n(Cc2ccc(Cl)cc2)c1=O [Compound R-249], the IC50 is reported as 6 nM.
COC(=O)C(C)(C)Cn1c(=O)[nH]/c(=N\c2ccc(Oc3ccnc(C(=O)O)c3)cc2)n(Cc2ccc(Cl)cc2)c1=O [Compound R-105] showed an IC50 of 7 nM.
In the case of COC(=O)C(C)(C)Cn1c(=O)[nH]/c(=N\c2ccc(OC3CCC3)c(F)c2)n(Cc2ccc(Cl)cc2)c1=O [Compound R-073], the IC50 is reported as 31 nM.
In the case of COc1ccc(Oc2ccc(/N=c3\[nH]c(=O)n([C@@H](C)[C@@H](C)C(=O)O)c(=O)n3Cc3ccc(Cl)cc3)cc2)nc1 [Compound I-094], the IC50 is reported as 11 nM.
CC(C)n1c(=O)[nH]/c(=N\c2ccc(Oc3cccc(C#N)n3)c(Cl)c2)n(Cc2ccc(Cl)cc2)c1=O [Compound R-011] gave an IC50 of 49 nM.
COC(=O)[C@@H](C)Cn1c(=O)[nH]/c(=N\c2ccc(Oc3ncccn3)cc2)n(Cc2ccc(Cl)cc2)c1=O [Compound R-059] gave an IC50 of 5 nM.
With CCOC(=O)c1cnc(Oc2ccc(/N=c3\[nH]c(=O)n(CC)c(=O)n3Cc3ccc(Cl)cc3)cc2)cc1Cl [Compound R-053] the IC50 was 52 nM.
In the case of Cc1cc(/N=c2\[nH]c(=O)n(CC(C)(C)C(=O)O)c(=O)n2Cc2ccc(Cl)cc2)ccc1Oc1ccccn1 [Compound I-219], the IC50 is reported as 12 nM.
Compound Cc1cccnc1Oc1ccc(/N=c2\[nH]c(=O)n(CC(C)(C)C(=O)O)c(=O)n2Cc2ccc(Cl)cc2)cc1 [Compound I-078] has an IC50 of 19 nM.
In the case of Cn1c(=O)[nH]/c(=N\c2ccc(Oc3cccc(C(=O)Nc4ccc(C(=O)O)cc4)n3)cc2)n(C[C@H]2CC[C@H](C)CC2)c1=O [Compound R-006], the IC50 is reported as 4 nM.
In the case of COC(=O)C[C@@H](C)n1c(=O)[nH]/c(=N\c2ccc(Oc3ccc(F)cn3)cc2)n(Cc2ccc(C)cc2)c1=O [Compound I-190], the IC50 is reported as 5 nM.
CC(C)Oc1ccc(/N=c2\[nH]c(=O)n([C@H]3C[C@@H](C(=O)O)C3)c(=O)n2Cc2ccc(Cl)cc2)cc1Cl [Compound R-022] showed an IC50 of 12 nM.
For C[C@@H](C(=O)O)[C@H](C)n1c(=O)[nH]/c(=N\c2ccc(Oc3cncc(F)c3)c(F)c2)n(Cc2ccc(Cl)cc2)c1=O [Compound R-189], the IC50 was 8 nM.
